Experimental data from ChEMBL document CHEMBL1201862, “PubChem BioAssay data set” (2004).
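Each compound was tested at five concentrations against cells in 96-well plates for 48 hours. The concentration for 50% growth inhibition is given as GI50.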 Active and inactive are the calls of the source. Cut-off read from the data, not from the text of the source: active = GI50 up to about 1.1 µM and inactive = higher.

Legend:
Assay in all cases: NCI tumour cell line growth inhibition, 48 h
NCI/ADR-RES = test system: NCI/ADR-RES
COLO 205 = test system: COLO 205
SK-MEL-5 = test system: SK-MEL-5
A498 = test system: A498
CCRF-CEM = test system: CCRF-CEM
PC-3 = test system: PC-3
IGROV-1 = test system: IGROV-1
UACC-257 = test system: UACC-257
MOLT-4 = test system: MOLT-4
CAKI-1 = test system: CAKI-1
Hs-578T = test system: Hs-578T
OVCAR-3 = test system: OVCAR-3
DU-145 = test system: DU-145
T47D = test system: T47D
TK-10 = test system: TK-10
Malme-3M = test system: Malme-3M
HT-29 = test system: HT-29
HCT-15 = test system: HCT-15
OVCAR-5 = test system: OVCAR-5
MDA-MB-231 = test system: MDA-MB-231
U-251 = test system: U-251
UO-31 = test system: UO-31
SK-OV-3 = test system: SK-OV-3
SF-268 = test system: SF-268
MCF7 = test system: MCF7
SN12C = test system: SN12C
HCT-116 = test system: HCT-116
RPMI-8226 = test system: RPMI-8226
SR = test system: SR
SNB-75 = test system: SNB-75
SF-539 = test system: SF-539
SF-295 = test system: SF-295
ACHN = test system: ACHN
OVCAR-8 = test system: OVCAR-8
HCC 2998 = test system: HCC 2998
SNB-19 = test system: SNB-19
MDA-N = test system: MDA-N
NCI-H460 = test system: NCI-H460
KM12 = test system: KM12
SW-620 = test system: SW-620
786-0 = test system: 786-0
OVCAR-4 = test system: OVCAR-4
EKVX = test system: EKVX
NCI-H23 = test system: NCI-H23
HOP-62 = test system: HOP-62
HL-60 = test system: HL-60
SK-MEL-28 = test system: SK-MEL-28
LOX IMVI = test system: LOX IMVI
A549 = test system: A549
K562 = test system: K562
SK-MEL-2 = test system: SK-MEL-2

With `CC1CN=C(N(C(=O)Nc2ccccc2)C2CCCCC2)S1` (stereo unspecified) the GI50 (NCI/ADR-RES) was 14.5 µM (inactive), the GI50 (COLO 205) was 19 µM (inactive) and the GI50 (SK-MEL-5) was 15.1 µM (inactive). For the same compound, the GI50 (A498) was 14.4 µM (inactive), the GI50 (CCRF-CEM) was 20.7 µM (inactive) and the GI50 (PC-3) was 15.5 µM (inactive). For the same compound, the GI50 (IGROV-1) was 17.8 µM (inactive), the GI50 (UACC-257) was 16 µM (inactive) and the GI50 (MOLT-4) was 16.7 µM (inactive). For the same compound, the GI50 (CAKI-1) was 12.4 µM (inactive), the GI50 (Hs-578T) was 20.7 µM (inactive) and the GI50 (OVCAR-3) was 17.7 µM (inactive). The GI50 (DU-145) was 25.5 µM (inactive), the GI50 (T47D) was 17.7 µM (inactive) and the GI50 (TK-10) was 16.7 µM (inactive). The GI50 (Malme-3M) was 16.3 µM (inactive), the GI50 (HT-29) was 17 µM (inactive) and the GI50 (HCT-15) was 14.4 µM. The GI50 (OVCAR-5) was 14.7 µM (inactive), the GI50 (MDA-MB-231) was 15.4 µM (inactive) and the GI50 (U-251) was 16.9 µM (inactive). For the same compound, the GI50 (UO-31) was 17.3 µM (inactive), the GI50 (SK-OV-3) was 31.3 µM (inactive) and the GI50 (SF-268) was 17.6 µM (inactive). For the same compound, the GI50 (MCF7) was 16.6 µM (inactive), the GI50 (SN12C) was 16.6 µM (inactive) and the GI50 (HCT-116) was 16.7 µM (inactive). For the same compound, the GI50 (RPMI-8226) was 18.8 µM (inactive), the GI50 (SR) was 15.9 µM (inactive) and the GI50 (SNB-75) was 12.6 µM (inactive). The GI50 (SF-539) was 22.4 µM (inactive), the GI50 (SF-295) was 16.7 µM (inactive) and the GI50 (ACHN) was 13.5 µM (inactive). For the same compound, the GI50 (OVCAR-8) was 25.9 µM (inactive), the GI50 (HCC 2998) was 18.3 µM (inactive) and the GI50 (SNB-19) was 29.2 µM (inactive). The GI50 (MDA-N) was 15.6 µM (inactive), the GI50 (NCI-H460) was 16.6 µM (inactive) and the GI50 (KM12) was 16.1 µM (inactive). The GI50 (SW-620) was 14.1 µM (inactive), the GI50 (786-0) was 17.3 µM (inactive) and the GI50 (OVCAR-4) was 14.5 µM (inactive). For the same compound, the GI50 (EKVX) was 15.7 µM (inactive), the GI50 (NCI-H23) was 16.4 µM (inactive) and the GI50 (HOP-62) was 41.2 µM (inactive). The GI50 (HL-60) was 14.8 µM (inactive), the GI50 (SK-MEL-28) was 12.4 µM (inactive) and the GI50 (LOX IMVI) was 13.5 µM (inactive). For the same compound, the GI50 (A549) was 16.7 µM (inactive), the GI50 (K562) was 22.5 µM (inactive) and the GI50 (SK-MEL-2) was 15.2 µM (inactive).
